Measured values taken from paper PMC8306930, “A Comparative Analysis of the In Vitro Anticancer Activity of Iridium(III) {η^5-C5Me4R} Complexes with Variable R Groups” (International Journal of Molecular Sciences, 2021).

Experiments:
[1] = tested on: MRC5 human fibroblast cells; test: MTT viability assay, MRC5; type: cell-based; settings: MRC5, 72 h exposure, mean ± SD
From the text: (§1) The rat astrocytoma C6 cell line and murine melanoma B16 cell line were kindly gifted by Dr. L. Harhaji–Trajkovic, Institute for Biological Research “Sinisa Stankovic”—National Institute of Republic of Serbia (IBISS), and from Dr. Sinisa Radulovic (Institute for Oncology and Radiology of Serbia), respectively. Human colorectal (SW620 and HCT116), breast (MCF-7), and ovarian (A2780) cancer cell lines and non-malignant fibroblast cell line (MRC5) were purchased from the American Type Culture Collection (ATCC, Manassas, Virginia, USA). […] For viability assays, cells were seeded in listed densities/well: B16 and C6: 3 × 10^3; SW620: 9 × 10^3; A2780 and HCT116: 5 × 10^3; MCF-7: 8 × 10^3 and MRC5: 7 × 10^3. For flow cytometry, A2780 cells were seeded at 2 × 10^5 density/well in 6-well plates. Peritoneal macrophages were collected from the peritoneal cavity of C57BL/6 mice from the animal facility of IBISS by cavity lavage with ice-cold PBS. […] Macrophages were counted, seeded at 2 × 10^5 cells/well in 96-well plates for viability assay, and then left for 2 h to adhere. Before treatment, non-adherent cells were removed. The handling of animals and protocol for obtaining macrophages is in the agreement with the rules of the European Union and approved by the Institutional Animal Care and Use Committee at IBISS (No. 02-09/16).
(§2) Stock solutions of 1b, 1c, 1d, and 1e were prepared in ethanol at concentration of 20 mM and kept at −20 °C, while 10 mM stock solution of cisplatin was prepared in DMF just before the usage. Desired final concentrations were obtained by dilution in culture medium.
(§3) Cells were treated with various concentrations (up to 50 or 100 µM) of the above-mentioned complexes for 72 h. For the detection of mitochondrial respiration, cells were cultivated in the presence of MTT staining solution (0.5 mg/mL) for approximately 1 h at 37 °C. The dye was then discarded, and the formed formazan crystals (purple) were dissolved in DMSO. For an evaluation of viable attached cells, cells were fixed with 4% PFA for 10 min at room temperature, and subsequently stained for 15 min with 0.02% CV solution. […] The absorbance was measured with an automated microplate reader at 540 nm, with a reference wavelength of 670 nm. The IC50 values were calculated using a four-parameter logistic function and presented as mean ± SD from three independent experiments.

[2] = tested on: SW620 human colorectal adenocarcinoma cells; test: MTT viability assay, SW620; type: cell-based; settings: SW620, 72 h exposure, mean ± SD
From the text: as §1, §2, §3

[3] = Stability in RPMI-1640 cell culture medium by UV-Vis; type: physicochemical; settings: 37 °C, 24 h
[4] = tested on: HCT116 human colorectal carcinoma cells; test: CV viability assay, HCT116; type: cell-based; settings: HCT116, 72 h exposure, mean ± SD
From the text: as §1, §2, §3

[5] = Stability in D2O mixtures by 1H NMR; type: physicochemical; settings: DMSO-d6/D2O 2:1, 72 h at 37 °C, 1H NMR, dimethyl sulfone standard
Procedure: Complexes were dissolved in acetone-d6/D2O 2:1 (1b,d), DMSO-d6/D2O 2:1 (2a–d and 3), or methanol-d4/D2O 2:1 (1c) ([Ir] ≈ 10^−3 mol L^−1), then dimethyl sulfone (0.05 mL, 0.164 mmol) was added as internal standard. The mixtures were filtered through a celite pad, and the filtrated solutions were analyzed by ^1H NMR spectroscopy.
The solutions were then stored for 72 h at 37 °C, and new NMR analyses were subsequently performed.

[6] = tested on: MCF-7 human breast cancer cells; test: CV viability assay, MCF-7; type: cell-based; settings: MCF-7, 72 h exposure, mean ± SD
From the text: as §1, §2, §3

[7] = tested on: MRC5 human fibroblast cells; test: CV viability assay, MRC5; type: cell-based; settings: MRC5, 72 h exposure, mean ± SD
From the text: as §1, §2, §3

[8] = tested on: A2780 human ovarian cancer cells; test: MTT viability assay, A2780; type: cell-based; settings: A2780, 72 h exposure, mean ± SD
From the text: as §1, §2, §3

[9] = tested on: SW620 human colorectal adenocarcinoma cells; test: CV viability assay, SW620; type: cell-based; settings: SW620, 72 h exposure, mean ± SD
From the text: as §1, §2, §3

[10] = tested on: MCF-7 human breast cancer cells; test: MTT viability assay, MCF-7; type: cell-based; settings: MCF-7, 72 h exposure, mean ± SD
From the text: as §1, §2, §3

[11] = tested on: A2780 human ovarian cancer cells; test: CV viability assay, A2780; type: cell-based; settings: A2780, 72 h exposure, mean ± SD
From the text: as §1, §2, §3

[12] = tested on: C6 rat glioma cells; test: CV viability assay, C6; type: cell-based; settings: C6, 72 h exposure, mean ± SD
From the text: as §1, §2, §3

[13] = tested on: C6 rat glioma cells; test: MTT viability assay, C6; type: cell-based; settings: C6, 72 h exposure, mean ± SD
From the text: as §1, §2, §3

[14] = Octanol/water partition coefficient, shake-flask method with UV-Vis; settings: 21 °C, mean ± standard deviation
Procedure: (a) Octanol/water partition coefficients (Log Pow). Partition coefficients (Pow; IUPAC: KD partition constant), defined as Pow = corg/caq, where corg and caq are molar concentrations of the selected compound in the organic and aqueous phase, respectively, were determined by the shake-flask method and UV-Vis measurements. Deionized water and 1-octanol were vigorously stirred for 24 h, to enable saturation of both phases, then separated by centrifugation. A stock solution of the selected iridium compound (ca. 2 mg) was prepared by first adding acetone (50 μL, to help solubilization), followed by water-saturated octanol (2.5 mL). The solution was diluted with water-saturated octanol (ca. 1:3 v/v ratio, cIr ≈ 10^−4 M, so that 1.5 ≤ A ≤ 2.0 at λmax) and its UV-Vis spectrum was recorded (A^0org). An aliquot of the solution (Vorg = 1.2 mL) was transferred into a test tube and octanol-saturated water (Vorg = Vaq = 1.2 mL) was added. The mixture was vigorously stirred for 30 min at 21 °C then centrifuged (5000 rpm, 5 min). The UV-Vis spectrum of the organic phase was recorded (A^forg) and the partition coefficient was calculated as Pow = A^forg/(A^0org − A^forg) where A^0org and A^forg are the absorbance in the organic phase before and after partition with the aqueous phase, respectively. The wavelength of the maximum absorption of each compound (ca. 300 nm) was used for UV-Vis quantitation.

[15] = tested on: B16 mouse melanoma cells; test: CV (crystal violet) viability assay, B16; type: cell-based; settings: B16, 72 h exposure, mean ± SD
From the text: as §1, §2, §3

[16] = tested on: HCT116 human colorectal carcinoma cells; test: MTT viability assay, HCT116; type: cell-based; settings: HCT116, 72 h exposure, mean ± SD
From the text: as §1, §2, §3

[17] = tested on: B16 mouse melanoma cells; test: MTT viability assay, B16; type: cell-based; settings: B16, 72 h exposure, mean ± SD
From the text: as §1, §2, §3

[18] = tested on: A2780 cells; test: Autophagosomes, acridine orange flow cytometry; type: cell-based, human; settings: A2780, IC50 doses, 48 h, AO
Procedure: (§4) Experiments were carried out in three independent replicates.

[19] = tested on: primary mouse peritoneal cells; test: Viability of primary mouse peritoneal cells (macrophages); type: cell-based
From the text: The rat astrocytoma C6 cell line and murine melanoma B16 cell line were kindly gifted by Dr. L. Harhaji–Trajkovic, Institute for Biological Research “Sinisa Stankovic”—National Institute of Republic of Serbia (IBISS), and from Dr. Sinisa Radulovic (Institute for Oncology and Radiology of Serbia), respectively. Human colorectal (SW620 and HCT116), breast (MCF-7), and ovarian (A2780) cancer cell lines and non-malignant fibroblast cell line (MRC5) were purchased from the American Type Culture Collection (ATCC, Manassas, Virginia, USA). […] For viability assays, cells were seeded in listed densities/well: B16 and C6: 3 × 10^3; SW620: 9 × 10^3; A2780 and HCT116: 5 × 10^3; MCF-7: 8 × 10^3 and MRC5: 7 × 10^3. For flow cytometry, A2780 cells were seeded at 2 × 10^5 density/well in 6-well plates. […] Macrophages were counted, seeded at 2 × 10^5 cells/well in 96-well plates for viability assay, and then left for 2 h to adhere. […]
Cells were treated with various concentrations (up to 50 or 100 µM) of the above-mentioned complexes for 72 h. […] The absorbance was measured with an automated microplate reader at 540 nm, with a reference wavelength of 670 nm. The IC50 values were calculated using a four-parameter logistic function and presented as mean ± SD from three independent experiments.

[20] = tested on: A2780 cells; test: ROS/RNS, DHR123 flow cytometry; type: cell-based, human; settings: A2780, IC50 doses, 48 h, DHR123, with respect to untreated cultures
Procedure: as §4

[21] = tested on: A2780 cells; test: Mitochondrial membrane potential, DiOC6(3) flow cytometry; type: cell-based, human; settings: A2780, IC50 doses, 24 h, in comparison with untreated cells
Procedure: as §4

[22] = tested on: A2780 cells; test: Cell proliferation, CFSE flow cytometry; type: cell-based, human; settings: A2780, IC50 doses, 72 h of incubation
Procedure: as §4

[23] = tested on: A2780 cells; settings: A2780, IC50 doses, 48 h, AnnV/PI
Procedure: as §4

[24] = tested on: A2780 cells; test: Senescence, FDG assay of beta galactosidase activity, flow cytometry; type: cell-based, human; settings: A2780, IC50 doses, 48 h, in comparison to the control
Procedure: as §4

[25] = tested on: A2780 cells; test: Intracellular nitric oxide, DAF-FM flow cytometry; type: cell-based, human; settings: A2780, IC50 doses, 48 h, with respect to untreated cultures
Procedure: as §4

| Structure (SMILES) | IC50 [1] | IC50 [2] | Stability in RPMI-1640 cell culture medium [3] | IC50 [4] | Fraction of unaltered compound [5] | IC50 [6] | IC50 [7] | IC50 [8] | IC50 [9] | IC50 [10] | IC50 [11] | IC50 [12] | IC50 [13] | Log Pow [14] | IC50 [15] | IC50 [16] | IC50 [17] | further results |
| --- | --- | --- | --- | --- | --- | --- | --- | --- | --- | --- | --- | --- | --- | --- | --- | --- | --- | --- |
| CCC[c-]1c(C)c(C)c(C)c1C.[Cl-].[Ir+3].[c-]1ccccc1-c1ccccn1 [Complex 2c, (1-(propyl)-2,3,4,5-tetramethylcyclopentadienyl)(2-phenylpyridine)iridium(III)chloride] | 3.7 ± 0.2 µM | 10.4 ± 0.4 µM | did not change | 13 ± 1.1 µM | 98% | 17.2 ± 0.1 µM | 2.7 ± 0.1 µM | 7.3 ± 0.6 µM | 12.4 ± 1.5 µM | 12 ± 1.3 µM | 7.2 ± 0.8 µM | 5.9 ± 0.5 µM | 4 ± 0.3 µM | 1.5 ± 0.2 | 8 ± 2 µM | 8 ± 0.6 µM | 6.7 ± 0.6 µM |  |
| Cc1c(C)c(C)[c-](-c2ccc(F)cc2)c1C.[Cl-].[Ir+3].[c-]1ccccc1-c1ccccn1 [Complex 2d, (1-(4-fluorobenzene)-2,3,4,5-tetramethylcyclopentadienyl)(2-phenylpyridine)iridium(III)chloride] | 2.4 ± 0.3 µM | 2 ± 0.1 µM | did not change | 5.3 ± 1.3 µM | 97% | 6.8 ± 0.7 µM | 2.1 ± 0.6 µM | 1.3 ± 0.1 µM | 2 ± 0.2 µM | 2.5 ± 0.2 µM | 1.8 ± 0.1 µM | 2.1 ± 0.1 µM | 2 ± 0.01 µM | 1.3 ± 0.2 | 1.7 ± 0.4 µM | 1.3 ± 0.3 µM | 1.2 ± 0.2 µM | High percentage of autophagosomes [18]: not recognized; Effect on viability of primary mouse peritoneal cells [19]: did not affect viability; Increase of intracellular levels of H2O2, HOCl and ONOO− (in total) [20]: 36.3%; Mitochondrial membrane hyperpolarization [21]: 48.6%; Effect on cell proliferation [22]: inhibition of cell proliferation; Induction of apoptotic cell death [23]: modest induction; Increase of beta galactosidase activity [24]: 31%; Increase of intracellular level of NO [25]: 38% |
